Laboratory results as given in US7355004B2, “Protein lipase inhibitor for flour and dough” (Danisco A/S, priority 2002, dated 2008).

Columns and labels:
[1] = system: purified Lipase 3 from Aspergillus niger; test: p-Nitrophenol-acetate assay, determination of Km for purified Lipase 3; format: biochemical
Protocol: (§1) Lipase activity was determined colorimetrically using p-nitrophenyl acetate as a substrate. In a microtiter plate was added 10 μl of sample or blank then 250 μl of substrate was added (0.5 mg p-nitrophenyl acetate/ml of 50 mM phosphate buffer, pH 6.5). The microtiterplate was incubated for 5 min. at 30° C. and the absorbance at 405 nm was then read in a microplate reader.
A 60 ml sample of Grindlipase (Danisco A/S) a ferment of Aspergillus niger, pH 5.5 was first filtered through GF/B filter and then through 0.45 μm filter. The filtered sample was then desalted on a Superdex G25 SP column (430 ml, 22×5 cm) equilibrated in 20 mM triethanolamin, pH 7.3. Flow 5 ml/min. The total volume after desalting was 150 ml.
The desalted sample was applied to a Source Q30 anion exchange column (100 ml, 5×5 cm) equilibrated in 20 mM triethanolamine, pH 7.3. The column was washed with equilibration buffer until a stable baseline was obtained. Lipase activity was then eluted with a 420 ml linear gradient from 0 to 0.35 M NaCl in equilibration buffer, flow […]. Fractions of 10 ml were collected. […]
To the pool from anion exchange was added ammonium sulfate to 1 M and the sample was applied to a Source Phenyl HIC column (20 ml, 10 x 2 cm) equilibrated in 20 mM sodium-acetate (pH 5.5), 1M (NH4)2SO4. […] Fractions 33-41 were analyzed by SDS-PAGE and fraction 40 and 41 contained pure lipase. […]

commercial lipase #1646 = test: p-Nitrophenol-acetate assay, determination of Km for another commercial lipase (#1646); format: biochemical; conditions: pH 6.5, 50 mM phosphate buffer, 30° C., 405 nm; substrate 0.1 to 0.75 mg/ml; fit to non-competitive kinetics not accepted
Protocol: as §1
Kinetic data were fitted to v=VmaxS/(Km+S) where Vmax is maximum velocity, S is substrate concentration, and Km is the concentration giving half maximal rate (Michaelis constant), using the EZ-FIT curve-fitting microcomputer program [Perrella, (1988) EZ-FIT: A practical curve-fitting microcomputer program for the analysis of enzyme kinetic data on IBM-PC compatible computers. Anal. Biochem. 174: 437-447]. To determine Ki the data were fitted to the formulas for non-competitive, competitive, un-competitive and the model showing the best fit (non-competitive) were used to determine Ki. The program uses the Nelder-Mead simplex optimization of initial guesses followed by Marquardt nonlinear regression algorithm for least squares optimization. Run's statistic is used to determine if the fitted curve goes through the data points or whether a systematic departure from the curve exists. The fitted parameter values and standard error are tested for significance by the Student t test.

For CC(=O)Oc1ccc([N+](=O)[O-])cc1 [p-nitrophenyl acetate], the “Km for p-nitrophenyl acetate” value ([1]; pH 6.5, 50 mM phosphate buffer, 30° C., 405 nm, four levels of lipase inhibitor, fit to non-competitive model) was 0.67 ± 0.04 mg/mL, the “Km for lipase with respect to p-nitrophenyl acetate (in words)” value ([1]; under the conditions in the assay) was “higher than the maximum solubility for p-nitrophenyl acetate” and the “Km for p-nitrophenyl acetate” value (commercial lipase #1646) was 2.0 ± 0.6 mg/mL.
